Calls of active or inactive are those of the source. No cut-off for these calls is given here.
Legend:
[1] = system: KM12; assay: Antiproliferative activity against human KM12 cells harbouring TRK assessed as reduction in cell viability; type: functional
[2] = system: LC-2-ad; assay: Antiproliferative activity against human LC-2-ad cells harbouring RET assessed as reduction in cell viability; type: functional
[3] = system: A549; assay: Antiproliferative activity against human A549 cells harbouring KRAS assessed as reduction in cell viability; type: functional
[4] = biological target: T1, High affinity nerve growth factor receptor (Homo sapiens, UniProt P04629); assay: Inhibition of TRK (unknown origin)
Target sequence in this assay (P04629 whole entry): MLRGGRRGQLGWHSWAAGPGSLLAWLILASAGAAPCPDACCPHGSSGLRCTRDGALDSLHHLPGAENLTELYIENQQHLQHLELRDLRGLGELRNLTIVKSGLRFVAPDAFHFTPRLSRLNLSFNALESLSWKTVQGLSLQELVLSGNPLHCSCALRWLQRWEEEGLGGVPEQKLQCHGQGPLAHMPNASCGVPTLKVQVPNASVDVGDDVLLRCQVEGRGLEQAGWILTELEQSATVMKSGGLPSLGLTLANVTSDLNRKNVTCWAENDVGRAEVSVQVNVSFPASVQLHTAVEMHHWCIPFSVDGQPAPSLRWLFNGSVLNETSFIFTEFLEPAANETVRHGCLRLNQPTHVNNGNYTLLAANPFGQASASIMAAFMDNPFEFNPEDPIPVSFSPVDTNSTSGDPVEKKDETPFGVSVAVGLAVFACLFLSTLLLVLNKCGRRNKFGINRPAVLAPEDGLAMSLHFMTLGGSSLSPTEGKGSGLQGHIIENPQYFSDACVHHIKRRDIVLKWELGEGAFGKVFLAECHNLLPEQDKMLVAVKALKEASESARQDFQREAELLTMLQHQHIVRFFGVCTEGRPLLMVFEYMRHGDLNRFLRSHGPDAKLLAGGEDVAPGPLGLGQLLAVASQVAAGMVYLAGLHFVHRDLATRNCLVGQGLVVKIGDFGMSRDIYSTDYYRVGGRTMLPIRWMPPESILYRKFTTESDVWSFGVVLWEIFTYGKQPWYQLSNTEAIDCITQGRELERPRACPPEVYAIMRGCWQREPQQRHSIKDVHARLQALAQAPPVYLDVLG

[5] = system: LC-2-ad; assay: Induction of cell cycle arrest in human LC-2-ad cells assessed as accumulation of cells at G1 phase at 1 uM incubated for 24 hrs by flow cytometry analysis; type: functional, cell-based
[6] = biological target: T1, High affinity nerve growth factor receptor; assay: Inhibition of TRK autophosphorylation in human KM12 cells at 0.01 to 1 uM measured after 24 hrs by Western blot analysis; type: cell-based; conditions: dose 0.01-1 µM
Target sequence in this assay (P04629 33-796 limits assumed): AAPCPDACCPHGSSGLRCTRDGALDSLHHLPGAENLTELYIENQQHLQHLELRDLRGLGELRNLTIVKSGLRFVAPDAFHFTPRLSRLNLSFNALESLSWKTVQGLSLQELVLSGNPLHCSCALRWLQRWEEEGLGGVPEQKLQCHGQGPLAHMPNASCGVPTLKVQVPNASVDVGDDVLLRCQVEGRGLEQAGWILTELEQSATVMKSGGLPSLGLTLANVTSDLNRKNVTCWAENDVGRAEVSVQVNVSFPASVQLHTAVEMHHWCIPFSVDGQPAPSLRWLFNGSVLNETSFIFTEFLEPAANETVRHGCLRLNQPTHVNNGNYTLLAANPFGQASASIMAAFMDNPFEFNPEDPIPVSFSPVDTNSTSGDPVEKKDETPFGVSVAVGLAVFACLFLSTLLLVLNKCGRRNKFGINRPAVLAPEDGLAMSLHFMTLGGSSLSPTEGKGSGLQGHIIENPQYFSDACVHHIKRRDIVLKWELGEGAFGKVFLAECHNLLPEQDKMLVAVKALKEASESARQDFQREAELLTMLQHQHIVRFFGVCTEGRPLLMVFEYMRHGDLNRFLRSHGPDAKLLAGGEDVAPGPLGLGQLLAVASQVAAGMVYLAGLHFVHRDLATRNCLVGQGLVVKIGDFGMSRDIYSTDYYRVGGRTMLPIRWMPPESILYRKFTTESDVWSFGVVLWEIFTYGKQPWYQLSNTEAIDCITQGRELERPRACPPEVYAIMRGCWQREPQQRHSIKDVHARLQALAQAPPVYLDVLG

[7] = biological target: T1, High affinity nerve growth factor receptor; assay: Inhibition of TRK autophosphorylation (unknown origin)
Target sequence in this assay (P04629 33-796 limits assumed): as above

[8] = biological target: T1, High affinity nerve growth factor receptor; assay: Inhibition of TRK autophosphorylation in human LC-2-ad cells at 0.01 to 1 uM measured after 24 hrs by Western blot analysis; type: cell-based; conditions: dose 0.01-1 µM
Target sequence in this assay (P04629 33-796 limits assumed): as above

[9] = system: KM12; assay: Induction of cell cycle arrest in human KM12 cells assessed as accumulation of cells at G1 phase at 1 uM incubated for 24 hrs by flow cytometry analysis; type: functional, cell-based
[10] = biological target: Proto-oncogene tyrosine-protein kinase receptor Ret (Homo sapiens, UniProt P07949); assay: Inhibition of 5FAM-tagged RET (unknown origin) using 5FAM-EPLYWSFPA as substrate incubated for 60 mins
Sequence of Proto-oncogene tyrosine-protein kinase receptor Ret (P07949 whole entry): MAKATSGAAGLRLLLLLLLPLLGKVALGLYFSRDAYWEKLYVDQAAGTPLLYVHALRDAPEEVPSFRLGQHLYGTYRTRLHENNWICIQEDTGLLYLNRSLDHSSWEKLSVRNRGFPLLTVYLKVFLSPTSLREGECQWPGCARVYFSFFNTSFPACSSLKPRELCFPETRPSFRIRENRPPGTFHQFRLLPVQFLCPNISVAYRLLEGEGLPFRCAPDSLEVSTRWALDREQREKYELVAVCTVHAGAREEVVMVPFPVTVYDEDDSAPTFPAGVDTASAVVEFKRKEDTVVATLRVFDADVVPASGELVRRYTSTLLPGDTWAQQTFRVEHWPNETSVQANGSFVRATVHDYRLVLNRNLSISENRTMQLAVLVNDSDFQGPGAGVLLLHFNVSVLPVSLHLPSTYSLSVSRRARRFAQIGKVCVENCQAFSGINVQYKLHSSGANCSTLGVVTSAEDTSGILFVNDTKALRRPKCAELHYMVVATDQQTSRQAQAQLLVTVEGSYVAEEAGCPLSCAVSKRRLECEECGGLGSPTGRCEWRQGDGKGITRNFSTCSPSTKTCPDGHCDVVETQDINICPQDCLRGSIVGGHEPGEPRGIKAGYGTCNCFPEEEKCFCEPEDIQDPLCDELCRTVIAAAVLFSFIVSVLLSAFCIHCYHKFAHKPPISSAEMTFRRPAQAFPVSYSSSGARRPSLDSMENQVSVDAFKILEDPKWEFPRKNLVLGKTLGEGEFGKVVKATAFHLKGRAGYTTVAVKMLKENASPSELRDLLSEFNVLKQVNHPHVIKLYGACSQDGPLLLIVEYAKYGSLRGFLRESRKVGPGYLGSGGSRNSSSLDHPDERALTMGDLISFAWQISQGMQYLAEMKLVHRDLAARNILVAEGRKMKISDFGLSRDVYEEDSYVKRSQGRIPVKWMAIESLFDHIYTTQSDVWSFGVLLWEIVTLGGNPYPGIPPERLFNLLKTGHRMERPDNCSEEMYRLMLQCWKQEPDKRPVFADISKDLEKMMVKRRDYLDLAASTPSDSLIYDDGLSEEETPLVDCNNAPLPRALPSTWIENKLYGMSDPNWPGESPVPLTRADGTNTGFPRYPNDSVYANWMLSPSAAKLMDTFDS

[11] = system: KM12; assay: Induction of cell cycle arrest in human KM12 cells assessed as accumulation of cells at G1 phase at 0.01 uM incubated for 24 hrs by flow cytometry analysis; type: functional, cell-based
[12] = system: A549; assay: Induction of cell cycle arrest in human A549 cells assessed as accumulation of cells at G1 phase at 0.01 uM incubated for 24 hrs by flow cytometry analysis; type: functional, cell-based
[13] = system: LC-2-ad; assay: Induction of cell cycle arrest in human LC-2-ad cells assessed as accumulation of cells at G1 phase at 0.01 uM incubated for 24 hrs by flow cytometry analysis; type: functional, cell-based

Structure (SMILES)	inhibition [7]	GC50 [1] [µM]	GC50 [2] [µM]	GC50 [3] [µM]	Activity [5]	Activity [9]	also measured
O=C(Cc1ccc(Nc2ncnc3[nH]c4ccccc4c23)cc1)Nc1cccc(C(F)(F)F)c1	–	0.49	0.94	>10	–	–	–
COc1cc2nccc(Oc3ccc(NC(=O)C4(C(=O)Nc5ccc(F)cc5)CC4)cc3)c2cc1OC [CABOZANTINIB]	–	–	–	–	–	–	IC50 [4]: 79 nM
COCCn1cc(-c2ccc3c(c2)[nH]c2ncnc(Nc4ccc(CC(=O)Nc5cc(C(C)(C)C)on5)cc4)c23)cn1	–	0.59	0.36	5.88	–	–	–
Cn1cc(-c2ccc3c(c2)ncn3-c2ccc(CC(=O)Nc3cc(C(C)(C)C)on3)cc2)cn1	–	–	–	–	–	–	IC50 [4]: 1.6 nM; IC50 [10]: 1 nM
C[C@@H]1CCc2ncc(F)cc2[C@H]2CCCN2c2ccn3ncc(c3n2)C(=O)N1 [SELITRECTINIB]	–	0.005	25.98	>40	–	–	Activity [11]: Active; Activity [12]: Active; Activity [13]: Active
CNC(=O)c1cc(Oc2ccc(NC(=O)Nc3ccc(Cl)c(C(F)(F)F)c3)cc2)ccn1 [SORAFENIB]	–	3.82	0.54	7.2	–	–	Activity [11]: Active; Activity [12]: Active; Activity [13]: Active

Second part, led by results:

inhibition [7]	Structure (SMILES)	GC50 [1] [µM]	GC50 [2] [µM]	GC50 [3] [µM]	Activity [5]	Activity [9]	also measured
Active	Cn1cc(-c2ccc3c(c2)[nH]c2ncnc(Nc4ccc(CC(=O)Nc5cc(C(C)(C)C)nn5C)cc4)c23)cn1	–	–	–	Active	Active	inhibition [6]: Active; inhibition [8]: Active
Active	Cn1cc(-c2ccc3c(c2)[nH]c2ncnc(Nc4ccc(CC(=O)Nc5cc(C(C)(C)C)on5)cc4)c23)cn1	–	–	–	Active	Active	–
Active	Cn1nc(C(C)(C)C)cc1NC(=O)Cc1ccc(Nc2ncnc3[nH]c4ccccc4c23)cc1	–	–	–	Active	Active	inhibition [6]: Active; inhibition [8]: Active

Reference: ChEMBL document CHEMBL5550150, “Discovery of 9H-pyrimido[4,5-b]indole derivatives as dual RET/TRKA inhibitors” (Bioorg Med Chem, 2024)
